Source: patent publication US10544103B2, “5-HT2 antagonists” (ANAMAR AB, priority 2015, dated 2020)

Biological target: T1, 5-HT2B receptor (Homo sapiens, UniProt P41595)
T1 construct: host or cells: CHO-K1
Assay: 5-HT2B receptor binding, 3H-LSD ligand displacement assay
Details: for inhibition at 0.001 µM: 0.001 uM compound; for inhibition at 0.01 µM: 0.01 uM compound; for inhibition at 0.1 µM: 0.1 uM compound
Procedure: 5-HT2B receptor binding (performed at Eurofins Panlabs Taiwan, Ltd.) to human receptor protein expressed in CHO-K1 cells was determined in a ligand displacement assay using ^3H-lysergic acid diethylamide (LSD) as radioligand and ketanserine as a standard reference compound. Data is presented as % displacement of radioligand at indicated compound concentrations, see Table 1 and Table 2.

T1 sequence (P41595 whole entry): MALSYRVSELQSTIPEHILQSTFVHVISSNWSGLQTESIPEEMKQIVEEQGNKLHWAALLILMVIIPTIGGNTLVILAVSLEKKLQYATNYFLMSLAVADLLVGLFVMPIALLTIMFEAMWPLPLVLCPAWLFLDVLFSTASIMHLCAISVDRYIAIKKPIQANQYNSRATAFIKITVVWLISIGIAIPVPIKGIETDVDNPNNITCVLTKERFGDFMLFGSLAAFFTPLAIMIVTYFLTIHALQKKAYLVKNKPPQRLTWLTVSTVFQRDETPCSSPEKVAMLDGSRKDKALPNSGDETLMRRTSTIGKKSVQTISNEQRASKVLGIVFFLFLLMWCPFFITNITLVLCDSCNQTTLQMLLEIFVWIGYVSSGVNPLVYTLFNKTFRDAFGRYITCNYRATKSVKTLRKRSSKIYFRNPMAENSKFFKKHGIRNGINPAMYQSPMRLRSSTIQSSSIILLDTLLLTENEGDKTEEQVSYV

Row | inhibition at 10 µM (10 uM compound) [%] | Molecule | inhibition at 0.001 µM [%] | inhibition at 0.01 µM [%] | inhibition at 0.1 µM [%] | inhibition at 1 µM (1 uM compound) [%] | 5-HT2B receptor binding (% displacement) (1 uM compound) [%] | 5-HT2B receptor binding (% displacement) (10 uM compound) [%]
1 | – | CC1CN(C(=N)NCc2ccc(Cl)cc2)N=C1c1ccccc1O (stereo not drawn) [Example 55, N-(4-Chlorobenzyl)-3-(2-hydroxyphenyl)-4-methyl-4,5-dihydro-1H-pyrazole-1-carboximidamide] | 16 | 67 | – | – | – | –
2 | – | CC1CN(C(=N)Nc2ccccc2)N=C1c1ccccc1O (stereo not drawn) [Example 97, 3-(2-Hydroxyphenyl)-4-methyl-N-phenyl-4,5-dihydro-1H-pyrazole-1-carboximidamide] | 62 | 99 | 105 | – | – | –
3 | – | COc1ccc(NC(=N)N2CC(C)C(c3ccccc3O)=N2)cc1 (stereo not drawn) [Example 105, 3-(2-Hydroxyphenyl)-N-(4-methoxyphenyl)-4-methyl-4,5-dihydro-1H-pyrazole-1-carboximidamide] | 46 | 95 | 106 | – | – | –
4 | – | N=C(N)N1CCC(c2ccccc2C(F)(F)F)=N1 [Example 13, 3-(2-(Trifluoromethyl)phenyl)-4,5-dihydro-1H-pyrazole-1-carboximidamide] | – | – | 34 | 82 | – | –
5 | – | CC1CN(C(=N)N)N=C1c1ccc(O)cc1O (stereo not drawn) [Example 67, 3-(2,4-Dihydroxyphenyl)-4-methyl-4,5-dihydro-1H-pyrazole-1-carboximidamide] | – | 9 | 31 | 72 | – | –
6 | – | CC1CN(C(=N)N[C@H](C)c2ccccc2)N=C1c1ccccc1O (stereo partly drawn) [Example 63, 3-(2-Hydroxyphenyl)-4-methyl-N—((R)-1-phenylethyl)-4,5-dihydro-1H-pyrazole-1-carboximidamide] | 36 | 81 | – | – | – | –
7 | – | CC1CN(C(=N)Nc2ccc(Cl)cc2)N=C1c1cccc(Cl)c1O (stereo not drawn) [Example 111, 3-(3-Chloro-2-hydroxyphenyl)-N-(4-chlorophenyl)-4-methyl-4,5-dihydro-1H-pyrazole-1-carboximidamide] | 80 | 99 | 101 | – | – | –
8 | – | COc1c(Cl)cccc1C1=NN(C(=N)N)CC1C (stereo not drawn) [Example 53, 3-(3-Chloro-2-methoxyphenyl)-4-methyl-4,5-dihydro-1H-pyrazole-1-carboximidamide] | – | 40 | 87 | 100 | – | –
9 | – | COc1c(Cl)cccc1C1=NN(C(=N)NC2CC2)CC1C (stereo not drawn) [Example 86, 3-(3-Chloro-2-methoxyphenyl)-N-cyclopropyl-4-methyl-4,5-dihydro-1H-pyrazole-1-carboximidamide] | -14 | 29 | 83 | – | – | –
10 | – | COc1ccccc1C1=NN(C(=N)Nc2ccc(C(F)(F)F)cc2)CC1C (stereo not drawn) [Example 98, 3-(2-Methoxyphenyl)-4-methyl-N-(4-(trifluoromethyl)phenyl)-4,5-dihydro-1H-pyrazole-1-carboximidamide] | 5 | 41 | 86 | – | – | –
11 | 99 | Cc1ccccc1C1=NN(C(=N)N)CC1 [Example 6, 3-(2-Methylphenyl)-4,5-dihydro-1H-pyrazole-1-carboximidamide] | – | – | – | 89 | – | –
12 | – | CC1CN(C(=N)N[C@@H](C)c2ccccc2)N=C1c1ccccc1O (stereo partly drawn) [Example 64, 3-(2-Hydroxyphenyl)-4-methyl-N—((S)-1-phenylethyl)-4,5-dihydro-1H-pyrazole-1-carboximidamide] | 23 | 43 | – | – | – | –
13 | – | COc1cccc(Cl)c1C1=NN(C(=N)N)CC1 [Example 33, 3-(2-Chloro-6-methoxyphenyl)-4,5-dihydro-1H-pyrazole-1-carboximidamide] | – | – | 5 | 37 | – | –
14 | – | N=C(N)N1N=C(c2ccccc2Cl)C2CCCC21 (stereo not drawn) [Example 30, 3-(2-Chlorophenyl)-4,5,6,6a-tetrahydrocyclopenta[c]pyrazole-1(3aH)-carboximidamide] | – | – | 44 | 88 | – | –
15 | – | N=C(N)N1CCC(c2ccc3ccccc3c2)=N1 [Example 12, 3-(Naphthalen-2-yl)-4,5-dihydro-1H-pyrazole-1-carboximidamide, reference compound] | – | – | 18 | 76 | – | –
16 | – | COc1c(Cl)cccc1C1=NN(C(=N)NC2CCCCC2)CC1C (stereo not drawn) [Example 84, 3-(3-Chloro-2-methoxyphenyl)-N-cyclohexyl-4-methyl-4,5-dihydro-1H-pyrazole-1-carboximidamide] | 11 | 63 | 94 | – | – | –
17 | – | CC1CN(C(=N)NCc2ccccc2)N=C1c1ccccc1O (stereo not drawn) [Example 42, N-Benzyl-3-(2-hydroxyphenyl)-4-methyl-4,5-dihydro-1H-pyrazole-1-carboximidamide] | 49 | 97 | 98 | 99 | – | –
18 | 94 | N=C(N)N1CCC(c2cc(F)ccc2F)=N1 [Example 7, 3-(2,5-Difluorophenyl)-4,5-dihydro-1H-pyrazole-1-carboximidamide] | – | – | – | 47 | – | –

Row | inhibition at 10 µM (10 uM compound) [%] | Molecule | inhibition at 0.001 µM [%] | inhibition at 0.01 µM [%] | inhibition at 0.1 µM [%] | inhibition at 1 µM (1 uM compound) [%] | 5-HT2B receptor binding (% displacement) (1 uM compound) [%] | 5-HT2B receptor binding (% displacement) (10 uM compound) [%]
19 | – | CC1CN(C(=N)Nc2ccccc2)N=C1c1cccc(Cl)c1O (stereo not drawn) [Example 89, 3-(3-Chloro-2-hydroxyphenyl)-4-methyl-N-phenyl-4,5-dihydro-1H-pyrazole-1-carboximidamide] | 88 | 100 | 97 | – | – | –
20 | – | CCCCCCNC(=N)N1CC(C)C(c2cccc(Cl)c2OC)=N1 (stereo not drawn) [Example 80, 3-(3-Chloro-2-methoxyphenyl)-N-hexyl-4-methyl-4,5-dihydro-1H-pyrazole-1-carboximidamide] | 13 | 68 | 97 | – | – | –
21 | 100 | N=C(N)N1CCC(c2ccccc2Cl)=N1 [Example 5, 3-(2-Chlorophenyl)-4,5-dihydro-1H-pyrazole-1-carboximidamide] | – | – | – | 95 | – | –
22 | – | CCC1CC(c2ccccc2Cl)=NN1C(=N)N (stereo not drawn) [Example 27, 3-(2-Chlorophenyl)-5-ethyl-4,5-dihydro-1H-pyrazole-1-carboximidamide] | – | – | 25 | 76 | – | –
23 | – | CC(C)c1ccccc1C1=NN(C(=N)N)CC1 [Example 8, 3-(2-Isopropylphenyl)-4,5-dihydro-1H-pyrazole-1-carboximidamide] | – | – | 80 | 95 | – | –
24 | 101 | N=C(N)N1CCC(c2ccccc2Br)=N1 [Example 4, 3-(2-Bromophenyl)-4,5-dihydro-1H-pyrazole-1-carboximidamide] | – | – | – | 89 | – | –
25 | – | COc1ccc(CNC(=N)N2CC(C)C(c3ccccc3O)=N2)cc1 (stereo not drawn) [Example 59, 3-(2-Hydroxyphenyl)-N-(4-methoxybenzyl)-4-methyl-4,5-dihydro-1H-pyrazole-1-carboximidamide] | 20 | 74 | – | – | – | –
26 | – | CC1CN(C(=N)Nc2ccc(C(F)(F)F)cc2)N=C1c1cccc(Cl)c1O (stereo not drawn) [Example 113, 3-(3-Chloro-2-hydroxyphenyl)-4-methyl-N-(4-(trifluoromethyl)phenyl)-4,5-dihydro-1H-pyrazole-1-carboximidamide] | 59 | 95 | 99 | – | – | –
27 | – | COc1ccccc1C1=NN(C(=N)NCC(F)(F)C(F)(F)C(F)(F)F)CC1C (stereo not drawn) [Example 92, N-(2,2,3,3,4,4,4-Heptafluorobutyl)-3-(2-methoxyphenyl)-4-methyl-4,5-dihydro-1H-pyrazole-1-carboximidamide] | -3 | 22 | 78 | – | – | –
28 | – | CCOC(=O)NC(=N)N1CC(C)C(c2cccc(Cl)c2O)=N1 (stereo not drawn) [Example 119, Ethyl ((3-(3-chloro-2-hydroxyphenyl)-4-methyl-4,5-dihydro-1H-pyrazol-1-yl)(imino)methyl)carbamate] | – | 50 | 89 | 99 | – | –
29 | – | COc1c(Cl)cccc1C1=NN(C(=N)NCC(F)(F)C(F)(F)C(F)(F)F)CC1C (stereo not drawn) [Example 106, 3-(3-Chloro-2-methoxyphenyl)-N-(2,2,3,3,4,4,4-heptafluorobutyl)-4-methyl-4,5-dihydro-1H-pyrazole-1-carboximidamide] | 16 | 57 | 93 | – | – | –
30 | – | CC1CN(C(=N)N)N=C1c1cccc2ccccc12 (stereo not drawn) [Example 24, 4-Methyl-3-(naphthalen-1-yl)-4,5-dihydro-1H-pyrazole-1-carboximidamide] | – | 39 | 86 | 102 | – | –
31 | – | CC1CN(C(=N)N)N=C1c1cc(Cl)ccc1O (stereo not drawn) [Example 52, 3-(5-Chloro-2-hydroxyphenyl)-4-methyl-4,5-dihydro-1H-pyrazole-1-carboximidamide] | – | 34 | 72 | 95 | – | –
32 | – | CC1CN(C(=N)Nc2ccc(C(F)(F)F)cc2)N=C1c1ccccc1O (stereo not drawn) [Example 99, 3-(2-Hydroxyphenyl)-4-methyl-N-(4-(trifluoromethyl)phenyl)-4,5-dihydro-1H-pyrazole-1-carboximidamide] | 48 | 89 | 103 | – | – | –
33 | – | CNC(=N)N1CCC(c2ccccc2Cl)=N1 [Example 19, 3-(2-Chlorophenyl)-N-methyl-4,5-dihydro-1H-pyrazole-1-carboximidamide] | – | – | 34 | 79 | – | –
34 | – | CC1CN(C(=N)N)N=C1c1cccc(Cl)c1O (stereo not drawn) [Example 54, 3-(3-Chloro-2-hydroxyphenyl)-4-methyl-4,5-dihydro-1H-pyrazole-1-carboximidamide] | – | 81 | 95 | 101 | – | –
35 | – | (R)-3-(2-Hydroxyphenyl)-4-methyl-4,5-dihydro-1H-pyrazole-1-carboximidamide [Example 36] | – | – | – | – | 90 | 99
